Experimental data published in ChEMBL document CHEMBL5465560, “Selectivity Literature for EUbOPEN Chemogenomic Library” (2024).

Tests used:
[1] = biological target: RAC-gamma serine/threonine-protein kinase (Homo sapiens, UniProt Q9Y243); assay: Selectivity interaction (NanoBRET assay (HEK293T cells)) EUB0001563a AKT3; format: cell-based; details: hek-293t
[2] = biological target: D(1A) dopamine receptor (Homo sapiens, UniProt P21728); assay: Selectivity interaction (GPCR panel (PDSP screen)) EUB0001492b DRD1; details: at 10 µM
[3] = biological target: Beta-3 adrenergic receptor (Homo sapiens) (UniProt P13945); assay: Selectivity interaction (GPCR panel (PDSP screen)) EUB0001492b ADRB3; details: at 10 µM
[4] = biological target: T1, 4-aminobutyrate aminotransferase, mitochondrial (Homo sapiens, UniProt P80404); assay: (§1) Selectivity interaction (GPCR panel (PDSP screen)) EUB0001492b ABAT; details: at 10 µM
T1 sequence (P80404 whole entry): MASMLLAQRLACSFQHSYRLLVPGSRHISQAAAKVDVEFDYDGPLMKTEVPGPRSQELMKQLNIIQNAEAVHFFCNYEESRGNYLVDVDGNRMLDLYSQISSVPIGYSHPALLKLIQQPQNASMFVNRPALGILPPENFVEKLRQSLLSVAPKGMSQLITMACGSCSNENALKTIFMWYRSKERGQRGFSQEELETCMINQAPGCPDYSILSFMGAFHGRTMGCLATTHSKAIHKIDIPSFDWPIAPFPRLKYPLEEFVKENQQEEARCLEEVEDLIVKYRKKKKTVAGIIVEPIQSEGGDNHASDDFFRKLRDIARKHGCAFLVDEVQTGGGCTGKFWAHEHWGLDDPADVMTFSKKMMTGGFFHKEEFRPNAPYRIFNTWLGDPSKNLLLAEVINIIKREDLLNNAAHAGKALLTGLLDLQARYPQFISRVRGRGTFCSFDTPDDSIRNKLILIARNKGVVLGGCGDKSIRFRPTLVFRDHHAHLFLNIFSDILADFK

[5] = biological target: D(2) dopamine receptor (Homo sapiens, UniProt P14416); assay: Selectivity interaction (GPCR panel (PDSP screen)) EUB0001492b DRD2; details: at 10 µM
[6] = biological target: T2, Gamma-aminobutyric acid receptor subunit alpha-1 (Homo sapiens) (UniProt P14867); assay: Selectivity interaction (GPCR panel (PDSP screen)) EUB0001492b GABRA1; details: at 10 µM
T2 sequence (whole entry): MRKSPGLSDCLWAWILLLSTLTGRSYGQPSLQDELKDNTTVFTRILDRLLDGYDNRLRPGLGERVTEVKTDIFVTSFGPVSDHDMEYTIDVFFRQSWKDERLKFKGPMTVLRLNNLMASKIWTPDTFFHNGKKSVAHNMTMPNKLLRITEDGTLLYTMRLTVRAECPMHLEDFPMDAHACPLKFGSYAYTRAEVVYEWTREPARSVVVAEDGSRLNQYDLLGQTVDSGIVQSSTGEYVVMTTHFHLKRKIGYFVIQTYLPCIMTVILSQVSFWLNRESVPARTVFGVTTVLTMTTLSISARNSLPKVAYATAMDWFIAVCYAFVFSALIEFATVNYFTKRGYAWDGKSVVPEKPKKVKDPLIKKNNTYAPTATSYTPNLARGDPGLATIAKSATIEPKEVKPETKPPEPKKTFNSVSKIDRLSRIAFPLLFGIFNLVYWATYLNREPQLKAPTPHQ

[7] = biological target: T3, 5-hydroxytryptamine receptor 1A (Homo sapiens) (UniProt P08908); assay: Selectivity interaction (GPCR panel (PDSP screen)) EUB0001492b HTR1A; details: at 10 µM
T3 sequence (whole entry): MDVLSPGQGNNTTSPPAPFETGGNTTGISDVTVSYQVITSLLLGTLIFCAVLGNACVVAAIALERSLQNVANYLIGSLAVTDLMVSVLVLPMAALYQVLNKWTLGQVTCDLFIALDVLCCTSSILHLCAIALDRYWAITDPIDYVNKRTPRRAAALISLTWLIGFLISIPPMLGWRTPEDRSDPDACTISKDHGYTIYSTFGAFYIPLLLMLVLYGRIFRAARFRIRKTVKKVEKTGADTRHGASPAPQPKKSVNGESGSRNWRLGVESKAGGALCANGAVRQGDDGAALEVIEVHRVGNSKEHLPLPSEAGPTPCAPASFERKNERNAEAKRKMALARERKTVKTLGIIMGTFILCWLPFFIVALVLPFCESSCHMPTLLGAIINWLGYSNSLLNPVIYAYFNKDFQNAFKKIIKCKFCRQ

[8] = biological target: T1, 4-aminobutyrate aminotransferase, mitochondrial; assay: as §1
[9] = biological target: Interleukin-1 receptor-associated kinase 3 (Homo sapiens, UniProt Q9Y616); assay: Selectivity interaction (NanoBRET assay (in HEK293T cells)) EUB0001492b IRAK3; format: cell-based, HEK-293T
Chain of Interleukin-1 receptor-associated kinase 3 (Q9Y616 whole entry): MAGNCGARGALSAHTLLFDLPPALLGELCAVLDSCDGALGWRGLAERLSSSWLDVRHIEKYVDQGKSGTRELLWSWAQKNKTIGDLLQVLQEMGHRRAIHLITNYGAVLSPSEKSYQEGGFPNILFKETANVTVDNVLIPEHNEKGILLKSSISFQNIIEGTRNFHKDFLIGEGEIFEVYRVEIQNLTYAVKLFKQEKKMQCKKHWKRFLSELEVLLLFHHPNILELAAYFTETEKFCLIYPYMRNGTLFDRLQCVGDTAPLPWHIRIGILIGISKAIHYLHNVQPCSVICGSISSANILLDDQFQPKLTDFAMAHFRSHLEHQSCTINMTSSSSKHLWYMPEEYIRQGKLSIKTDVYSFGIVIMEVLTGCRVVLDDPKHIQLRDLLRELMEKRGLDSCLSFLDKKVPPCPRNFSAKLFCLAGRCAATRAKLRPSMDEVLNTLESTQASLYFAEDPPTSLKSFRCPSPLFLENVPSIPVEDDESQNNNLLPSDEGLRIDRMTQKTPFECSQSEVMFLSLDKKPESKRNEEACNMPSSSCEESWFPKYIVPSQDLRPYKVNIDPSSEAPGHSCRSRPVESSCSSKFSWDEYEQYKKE

[10] = biological target: T4, Alpha-1A adrenergic receptor (Homo sapiens) (UniProt P35348); assay: Selectivity interaction (GPCR panel (PDSP screen)) EUB0001492b ADRA1A; details: at 10 µM
T4 sequence (whole entry): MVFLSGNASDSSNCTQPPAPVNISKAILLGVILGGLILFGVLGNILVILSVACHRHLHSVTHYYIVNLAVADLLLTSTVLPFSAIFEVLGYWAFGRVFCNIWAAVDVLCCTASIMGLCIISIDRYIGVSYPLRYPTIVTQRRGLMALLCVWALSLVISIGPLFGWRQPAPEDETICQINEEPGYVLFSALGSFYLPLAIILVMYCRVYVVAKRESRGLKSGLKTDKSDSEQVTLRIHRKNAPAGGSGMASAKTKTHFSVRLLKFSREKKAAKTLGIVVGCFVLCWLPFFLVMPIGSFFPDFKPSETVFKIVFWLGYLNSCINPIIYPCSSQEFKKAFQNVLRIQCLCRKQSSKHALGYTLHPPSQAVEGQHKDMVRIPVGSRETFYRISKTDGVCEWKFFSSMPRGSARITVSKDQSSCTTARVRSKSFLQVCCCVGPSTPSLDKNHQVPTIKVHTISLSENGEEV

[11] = biological target: D(3) dopamine receptor (Homo sapiens, UniProt P35462); assay: Selectivity interaction (GPCR panel (PDSP screen)) EUB0001492b DRD3; details: at 10 µM
[12] = biological target: Cyclin-G-associated kinase (Homo sapiens, UniProt O14976); assay: Selectivity interaction (Kinase panel (enzymatic assay, literature)) EUB0001492b GAK
[13] = biological target: D(4) dopamine receptor (Homo sapiens) (UniProt P21917); assay: Selectivity interaction (GPCR panel (PDSP screen)) EUB0001492b DRD4; details: at 10 µM
[14] = biological target: Alpha-1D adrenergic receptor (Homo sapiens) (UniProt P25100); assay: Selectivity interaction (GPCR panel (PDSP screen)) EUB0001492b ADRA1D; details: at 10 µM
[15] = biological target: 5-hydroxytryptamine receptor 7 (Homo sapiens) (UniProt P34969); assay: Selectivity interaction (GPCR panel (PDSP screen)) EUB0001492b HTR7; details: at 10 µM
[16] = biological target: 5-hydroxytryptamine receptor 1D (Homo sapiens) (UniProt P28221); assay: Selectivity interaction (GPCR panel (PDSP screen)) EUB0001492b HTR1D; details: at 10 µM
[17] = biological target: AP2-associated protein kinase 1 (Homo sapiens, UniProt Q2M2I8); assay: Selectivity interaction (Kinase panel (enzymatic assay, literature)) EUB0001492b AAK1
[18] = biological target: Muscarinic acetylcholine receptor M3 (Homo sapiens, UniProt P20309); assay: Selectivity interaction (GPCR panel (PDSP screen)) EUB0001492b CHRM3; details: at 10 µM
Chain of Muscarinic acetylcholine receptor M3 (P20309 whole entry, looked up): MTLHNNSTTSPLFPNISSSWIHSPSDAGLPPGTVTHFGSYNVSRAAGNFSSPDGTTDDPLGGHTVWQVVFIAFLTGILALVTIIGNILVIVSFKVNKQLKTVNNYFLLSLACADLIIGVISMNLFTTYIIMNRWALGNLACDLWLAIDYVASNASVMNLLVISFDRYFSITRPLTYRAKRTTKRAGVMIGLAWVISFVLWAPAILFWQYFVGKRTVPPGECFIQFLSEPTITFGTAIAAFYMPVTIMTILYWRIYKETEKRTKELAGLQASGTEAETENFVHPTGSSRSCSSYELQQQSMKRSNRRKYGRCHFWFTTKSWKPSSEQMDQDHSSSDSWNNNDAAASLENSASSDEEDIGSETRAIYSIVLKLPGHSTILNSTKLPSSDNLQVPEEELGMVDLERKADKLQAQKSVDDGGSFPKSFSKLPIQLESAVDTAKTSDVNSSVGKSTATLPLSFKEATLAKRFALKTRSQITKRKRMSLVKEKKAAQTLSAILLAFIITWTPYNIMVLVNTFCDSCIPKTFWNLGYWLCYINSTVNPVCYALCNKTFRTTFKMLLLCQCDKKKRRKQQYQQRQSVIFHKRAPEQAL

[19] = biological target: T5, Alpha-2C adrenergic receptor (Homo sapiens) (UniProt P18825); assay: Selectivity interaction (GPCR panel (PDSP screen)) EUB0001492b ADRA2C; details: at 10 µM
T5 sequence (whole entry): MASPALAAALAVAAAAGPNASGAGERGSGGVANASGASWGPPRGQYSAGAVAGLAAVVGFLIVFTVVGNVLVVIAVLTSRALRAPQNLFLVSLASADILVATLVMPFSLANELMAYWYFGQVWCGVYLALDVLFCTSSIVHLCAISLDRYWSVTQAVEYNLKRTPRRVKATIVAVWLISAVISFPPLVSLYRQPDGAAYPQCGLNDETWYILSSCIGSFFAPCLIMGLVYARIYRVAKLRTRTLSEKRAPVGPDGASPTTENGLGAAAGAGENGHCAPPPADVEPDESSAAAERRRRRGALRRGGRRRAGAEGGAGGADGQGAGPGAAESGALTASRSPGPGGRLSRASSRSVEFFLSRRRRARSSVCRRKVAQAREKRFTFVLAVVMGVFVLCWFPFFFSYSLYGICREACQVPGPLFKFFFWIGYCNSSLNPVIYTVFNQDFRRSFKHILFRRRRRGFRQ

[20] = biological target: T6, Mitotic checkpoint serine/threonine-protein kinase BUB1 (Homo sapiens, UniProt O43683); assay: Selectivity interaction (Kinase panel (literature)) EUB0001549a BUB1
T6 sequence (O43683 whole entry): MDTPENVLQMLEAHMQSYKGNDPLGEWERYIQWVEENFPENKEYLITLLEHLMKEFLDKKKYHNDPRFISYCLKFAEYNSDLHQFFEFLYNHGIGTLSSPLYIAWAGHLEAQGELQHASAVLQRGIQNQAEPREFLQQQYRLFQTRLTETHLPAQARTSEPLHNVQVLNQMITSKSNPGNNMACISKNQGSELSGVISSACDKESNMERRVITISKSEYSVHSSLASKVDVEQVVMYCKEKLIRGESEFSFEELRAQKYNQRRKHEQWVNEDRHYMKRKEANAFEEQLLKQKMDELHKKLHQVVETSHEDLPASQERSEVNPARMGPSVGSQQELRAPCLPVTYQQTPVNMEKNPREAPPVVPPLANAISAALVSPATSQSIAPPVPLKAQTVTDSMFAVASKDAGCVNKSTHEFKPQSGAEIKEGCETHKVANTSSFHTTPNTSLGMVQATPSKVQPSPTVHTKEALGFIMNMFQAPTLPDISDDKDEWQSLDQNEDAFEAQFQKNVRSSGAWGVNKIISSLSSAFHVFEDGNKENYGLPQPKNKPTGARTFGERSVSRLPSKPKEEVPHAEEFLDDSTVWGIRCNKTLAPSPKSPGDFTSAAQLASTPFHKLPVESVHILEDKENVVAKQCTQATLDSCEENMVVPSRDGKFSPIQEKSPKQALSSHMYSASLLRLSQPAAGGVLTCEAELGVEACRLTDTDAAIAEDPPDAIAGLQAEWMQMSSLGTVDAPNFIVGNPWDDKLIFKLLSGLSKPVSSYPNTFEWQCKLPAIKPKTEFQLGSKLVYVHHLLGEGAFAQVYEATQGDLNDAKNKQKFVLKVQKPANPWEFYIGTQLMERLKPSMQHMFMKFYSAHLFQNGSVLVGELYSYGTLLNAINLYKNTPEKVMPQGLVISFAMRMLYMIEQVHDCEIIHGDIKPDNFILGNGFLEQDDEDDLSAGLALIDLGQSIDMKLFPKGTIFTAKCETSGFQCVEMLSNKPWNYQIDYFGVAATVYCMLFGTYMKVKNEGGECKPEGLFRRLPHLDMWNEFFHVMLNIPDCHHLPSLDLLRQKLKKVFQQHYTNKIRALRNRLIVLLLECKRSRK

[21] = biological target: T2, Gamma-aminobutyric acid receptor subunit alpha-1 (Homo sapiens); assay: Selectivity interaction (Eurofins-Panlabs Screen) EUB0001548a GABRA1; details: at 10 µM
[22] = biological target: Prostaglandin G/H synthase 1 (Homo sapiens) (UniProt P23219); assay: Selectivity interaction (Eurofins-Panlabs Screen) EUB0001548a PTGS1; details: at 10 µM
Chain of Prostaglandin G/H synthase 1 (Homo sapiens) (P23219 whole entry): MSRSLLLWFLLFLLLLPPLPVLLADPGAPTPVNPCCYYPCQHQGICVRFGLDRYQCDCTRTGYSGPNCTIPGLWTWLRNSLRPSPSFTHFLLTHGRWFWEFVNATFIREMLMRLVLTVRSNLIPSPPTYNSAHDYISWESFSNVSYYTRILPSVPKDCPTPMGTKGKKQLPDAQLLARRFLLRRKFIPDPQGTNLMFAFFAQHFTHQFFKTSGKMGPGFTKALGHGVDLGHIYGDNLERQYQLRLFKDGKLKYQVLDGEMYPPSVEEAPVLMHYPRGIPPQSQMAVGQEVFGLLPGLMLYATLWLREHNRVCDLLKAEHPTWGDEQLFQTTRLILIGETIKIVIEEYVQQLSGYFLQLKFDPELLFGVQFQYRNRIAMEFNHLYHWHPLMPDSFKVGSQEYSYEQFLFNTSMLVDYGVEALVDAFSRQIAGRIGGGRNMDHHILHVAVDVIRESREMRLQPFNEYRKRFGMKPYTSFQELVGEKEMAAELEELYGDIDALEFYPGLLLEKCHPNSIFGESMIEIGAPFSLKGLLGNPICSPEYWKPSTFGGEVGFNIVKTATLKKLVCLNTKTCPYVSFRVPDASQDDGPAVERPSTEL

[23] = biological target: T6, Mitotic checkpoint serine/threonine-protein kinase BUB1; assay: Selectivity interaction (TR-FRET kinase assay ) EUB0001548a BUB1
[24] = biological target: 3',5'-cyclic-AMP phosphodiesterase 4A (Homo sapiens, UniProt P27815); assay: Selectivity interaction (Eurofins-Panlabs Screen) EUB0001548a PDE4A; details: at 10 µM
[25] = biological target: Sodium/nucleoside cotransporter 1 (Homo sapiens) (UniProt O00337); assay: Selectivity interaction (Eurofins-Panlabs Screen) EUB0001548a SLC28A1; details: at 10 µM
Chain of Sodium/nucleoside cotransporter 1 (Homo sapiens) (O00337 whole entry): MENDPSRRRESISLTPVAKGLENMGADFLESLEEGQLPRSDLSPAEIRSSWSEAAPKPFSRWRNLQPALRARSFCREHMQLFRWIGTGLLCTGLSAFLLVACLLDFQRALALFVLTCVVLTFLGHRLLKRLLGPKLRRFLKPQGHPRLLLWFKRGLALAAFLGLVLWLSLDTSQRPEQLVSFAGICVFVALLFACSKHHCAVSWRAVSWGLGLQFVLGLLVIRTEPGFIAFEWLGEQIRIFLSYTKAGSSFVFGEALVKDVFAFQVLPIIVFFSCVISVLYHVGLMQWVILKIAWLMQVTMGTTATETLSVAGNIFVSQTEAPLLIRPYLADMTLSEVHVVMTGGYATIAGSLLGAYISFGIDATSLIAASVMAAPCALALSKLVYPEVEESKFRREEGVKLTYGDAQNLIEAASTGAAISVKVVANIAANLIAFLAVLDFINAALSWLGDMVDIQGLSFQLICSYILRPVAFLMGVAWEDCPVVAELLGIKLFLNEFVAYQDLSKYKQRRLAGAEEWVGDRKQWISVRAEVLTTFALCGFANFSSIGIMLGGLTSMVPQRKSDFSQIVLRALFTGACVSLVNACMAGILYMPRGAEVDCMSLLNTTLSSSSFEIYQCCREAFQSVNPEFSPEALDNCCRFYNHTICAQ

[26] = biological target: Adenosine receptor A2a (Homo sapiens, UniProt P29274); assay: Selectivity interaction (Eurofins-Panlabs Screen) EUB0001548a ADORA2A; details: at 10 µM
Chain of Adenosine receptor A2a (P29274 whole entry): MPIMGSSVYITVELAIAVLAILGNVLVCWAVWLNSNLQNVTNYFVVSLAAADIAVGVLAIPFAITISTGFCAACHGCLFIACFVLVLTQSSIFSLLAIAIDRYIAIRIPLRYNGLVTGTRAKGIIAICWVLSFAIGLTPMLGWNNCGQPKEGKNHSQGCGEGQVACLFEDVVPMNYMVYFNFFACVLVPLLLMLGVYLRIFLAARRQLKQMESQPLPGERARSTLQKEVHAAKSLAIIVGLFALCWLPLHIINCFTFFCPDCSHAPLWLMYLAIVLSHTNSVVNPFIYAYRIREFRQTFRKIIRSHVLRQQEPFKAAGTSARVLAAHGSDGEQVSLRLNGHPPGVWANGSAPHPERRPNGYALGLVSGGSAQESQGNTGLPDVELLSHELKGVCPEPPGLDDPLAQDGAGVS

[27] = biological target: Serine/threonine-protein kinase 10 (Homo sapiens) (UniProt O94804); assay: Selectivity interaction (KinomeScan (DiscoverX)) EUB0001548a STK10; details: at 1 µM
[28] = biological target: T6, Mitotic checkpoint serine/threonine-protein kinase BUB1; assay: Selectivity interaction (KinomeScan (DiscoverX, competition binding assay)) EUB0001548a BUB1
[29] = biological target: Sodium channel protein type 2 subunit alpha (Homo sapiens) (UniProt Q99250); assay: Selectivity interaction (Eurofins-Panlabs Screen) EUB0001548a SCN2A; details: at 10 µM
[30] = biological target: Sodium/nucleoside cotransporter 1 (Homo sapiens, UniProt O00337); assay: Selectivity interaction (Eurofins-Panlabs Screen (enzymatic assay)) EUB0001548a SLC28A1
Chain of Sodium/nucleoside cotransporter 1 (O00337 whole entry): as the sequence (O00337 whole entry) above

[31] = biological target: T7, Dual specificity tyrosine-phosphorylation-regulated kinase 1B (Homo sapiens, UniProt Q9Y463); assay: Selectivity interaction (KinomeScan (DiscoverX)) EUB0001548a DYRK1B; details: at 1 µM
[32] = biological target: T7, Dual specificity tyrosine-phosphorylation-regulated kinase 1B; assay: Selectivity interaction (Kinome Scan (DiscoverX, competition binding assay)) EUB0001548a DYRK1B
[33] = biological target: Homeodomain-interacting protein kinase 3 (Homo sapiens, UniProt Q9H422); assay: Selectivity interaction (KinomeScan (DiscoverX, competition-binding assay)) EUB0001547a HIPK3
[34] = biological target: Cyclin-dependent kinase 7 (Homo sapiens, UniProt P50613); assay: Selectivity interaction (KinomeScan (DiscoverX, competition-binding assay)) EUB0001547a CDK7
[35] = biological target: Death-associated protein kinase 1 (Homo sapiens, UniProt P53355); assay: Selectivity interaction (KinomeScan (DiscoverX, competition-binding assay)) EUB0001547a DAPK1
[36] = biological target: Mitogen-activated protein kinase 15 (Homo sapiens, UniProt Q8TD08); assay: Selectivity interaction (KinomeScan (DiscoverX, competition binding assay)) EUB0001547a MAPK15
[37] = biological target: Serine/threonine-protein kinase 17B (Homo sapiens, UniProt O94768); assay: Selectivity interaction (KinomeScan (competition-binding assay, DiscoverX)) EUB0001547a STK17B
[38] = biological target: Calcium/calmodulin-dependent protein kinase type IV (Homo sapiens, UniProt Q16566); assay: Selectivity interaction (KinomeScan (DiscoverX, competition-binding assay)) EUB0001547a CAMK4

Chain of RAC-gamma serine/threonine-protein kinase (Q9Y243 whole entry): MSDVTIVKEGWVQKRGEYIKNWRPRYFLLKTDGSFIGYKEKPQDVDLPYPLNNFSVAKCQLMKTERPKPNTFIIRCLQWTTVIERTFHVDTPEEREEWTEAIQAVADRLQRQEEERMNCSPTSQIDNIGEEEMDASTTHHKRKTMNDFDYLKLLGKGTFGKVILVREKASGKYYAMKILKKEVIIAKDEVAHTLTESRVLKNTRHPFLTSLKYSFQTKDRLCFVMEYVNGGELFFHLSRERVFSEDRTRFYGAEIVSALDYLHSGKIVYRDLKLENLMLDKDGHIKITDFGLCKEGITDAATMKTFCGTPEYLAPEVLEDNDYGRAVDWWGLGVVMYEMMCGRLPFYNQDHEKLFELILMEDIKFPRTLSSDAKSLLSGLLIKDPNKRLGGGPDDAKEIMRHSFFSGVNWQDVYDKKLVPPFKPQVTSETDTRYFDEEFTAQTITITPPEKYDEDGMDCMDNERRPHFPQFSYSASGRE

## C=CC(=O)Nc1ccc2[nH]c(=O)n(C3CCN(Cc4ccc(-c5ccc6c(c5)NC(=O)CO6)cc4)CC3)c2c1 [RL2578]
[1]
  IC50: 18000 nM

## CCC(F)(F)c1cc(N2CCC(S(C)(=O)=O)CC2)nc2sc(C(N)=O)c(N)c12 [BI-605906]
[2]
  % of inhibition: 25.7%
[3]
  % of inhibition: 18%
[4]
  % of inhibition: 51.8%
[5]
  % of inhibition: 69.8%
[6]
  % of inhibition: 34.5%
[7]
  % of inhibition: 14.4%
[8]
  Ki: 2620 nM
[9]
  IC50: > 20000 nM
[10]
  % of inhibition: 18.9%
[11]
  % of inhibition: 51.5%
[12]
  IC50: 272 nM
[13]
  % of inhibition: 44.6%
[14]
  % of inhibition: 36.7%
[15]
  % of inhibition: 13.7%
[16]
  % of inhibition: 26.9%
[17]
  IC50: 188 nM
[18]
  % of inhibition: 21.1%
[19]
  % of inhibition: 13.7%

## COc1ccccc1Nc1nc(-c2nn(Cc3c(F)cc(OCCCO)cc3F)c3ccccc23)ncc1OC
[20]
  IC50: > 20000 nM

## COc1cnccc1Nc1nc(-c2nn(Cc3c(F)cc(OCCO)cc3F)c3ccccc23)ncc1OC
[21]
  % of inhibition: 60%
[22]
  % of inhibition: 54%
[23]
  IC50: 4.3 nM
[24]
  % of inhibition: 52%
[25]
  % of inhibition: 71%
[26]
  % of inhibition: 67%
[27]
  % of control: 0.6%
[28]
  IC50: 3.3 nM
[29]
  % of inhibition: 53%
[30]
  IC50: 370 nM
[31]
  % of control: 6.7%
[32]
  Kd: > 30000 nM

## N[C@@H]1CCCN(c2c(/C=C3\SC(=O)NC3=O)cccc2-c2ccccc2)C1
[33]
  Kd: 480 nM
[34]
  Kd: 38 nM
[35]
  Kd: 420 nM
[36]
  Kd: 5 nM
[37]
  Kd: 930 nM
[38]
  Kd: 360 nM
